Laboratory results from publication PMC3014376 (Vaccine, 2010).
Residues, ends and D or L forms follow the SMILES beside them.

Experiments:
Experiment in all cases: MHC-peptide binding assay
[1] = target: HLA-A*0206 (Homo sapiens, UniProt P04439, D140Y/D185E/D98H/E176V/E277Q/F33Y/G131W/G231S/I119V/I121R/I166T/I218V/L300P/L318F/N151K/N90K/P208A/P217A/Q86G/Q94H/R138H/R169H/T345S)
[2] = target: HLA-A*6802 (Homo sapiens, UniProt P04439, A269V/D140Y/D185E/E176V/E277Q/E87N/F33Y/G231S/I121R/I166T/I218V/L180W/L300P/L318F/N151K/P208A/P217A/Q86R/R138H/R169H/S129P/T345S/V36M)
[3] = target: HLA-A*0202 (Homo sapiens, UniProt P04439, D140Y/D185E/D98H/E176V/E277Q/G131W/G231S/I119L/I121R/I166T/I218V/L180W/L300P/L318F/N151K/N90K/P208A/P217A/Q67R/Q86G/Q94H/R138H/R169H/T345S)

## CC[C@H](C)[C@H](NC(=O)[C@@H](NC(=O)[C@H](CC(C)C)NC(=O)[C@H](CC(C)C)NC(=O)[C@H](CO)NC(=O)[C@H](CC(C)C)NC(=O)[C@H](CO)NC(=O)[C@H](CC(C)C)NC(=O)[C@@H](N)Cc1ccccc1)C(C)C)C(=O)O [SAG2C38–46] (H-FLSLSLLVI-OH)
[1]
  IC50: > 10000 nM
[2]
  IC50: 9830 nM

## CC[C@H](C)[C@H](NC(=O)[C@H](CCSC)NC(=O)[C@@H](N)Cc1ccccc1)C(=O)N[C@@H](C)C(=O)N[C@@H](Cc1ccccc1)C(=O)N[C@H](C(=O)N[C@@H](CO)C(=O)N[C@@H](CS)C(=O)N[C@@H](Cc1ccccc1)C(=O)N[C@@H](C)C(=O)O)[C@@H](C)CC [SAG2D180–189] (H-FMIAFISCFA-OH)
[3]
  IC50: 56 nM
[1]
  IC50: 112 nM
[2]
  IC50: 397 nM

## CC[C@H](C)[C@H](NC(=O)[C@@H](NC(=O)[C@@H](N)Cc1ccccc1)C(C)C)C(=O)N[C@@H](Cc1ccccc1)C(=O)N[C@@H](C)C(=O)N[C@@H](CS)C(=O)N[C@@H](CC(N)=O)C(=O)N[C@@H](Cc1ccccc1)C(=O)N[C@H](C(=O)O)C(C)C [SAG2X44–52] (H-FVIFACNFV-OH)
[1]
  IC50: 5.6 nM
[2]
  IC50: 1.2 nM

## CC[C@H](C)[C@H](NC(=O)[C@H](CO)NC(=O)[C@@H](NC(=O)[C@@H](NC(=O)[C@H](CCSC)NC(=O)[C@@H](N)Cc1ccccc1)[C@@H](C)CC)C(C)C)C(=O)N[C@@H](CO)C(=O)N[C@@H](CC(C)C)C(=O)N[C@H](C(=O)O)C(C)C [SAG2X351–359] (H-FMIVSISLV-OH)
[3]
  IC50: 1.8 nM
[1]
  IC50: 6.2 nM
[2]
  IC50: 48 nM

## CC[C@H](C)[C@H](NC(=O)[C@H](Cc1ccc(O)cc1)NC(=O)[C@H](CC(=O)O)NC(=O)[C@@H](NC(=O)[C@H](CC(C)C)NC(=O)[C@@H](N)Cc1ccccc1)[C@@H](C)O)C(=O)N1CCC[C@H]1C(=O)NCC(=O)N[C@@H](C)C(=O)O [SAG3_136–144] (H-FLTDYIPGA-OH)
[3]
  IC50: 7.1 nM
[1]
  IC50: 1.2 nM
[2]
  IC50: 2100 nM

## CC(C)C[C@H](NC(=O)CNC(=O)[C@H](CC(C)C)NC(=O)[C@H](CC(C)C)NC(=O)[C@@H](N)Cc1ccccc1)C(=O)N[C@@H](CC(C)C)C(=O)N[C@H](C(=O)N[C@@H](Cc1c[nH]cn1)C(=O)N[C@H](C(=O)O)C(C)C)C(C)C [SAG3_375–383] (H-FLLGLLVHV-OH)
[3]
  IC50: 37 nM
[1]
  IC50: 9.9 nM
[2]
  IC50: 173 nM

## CC[C@H](C)[C@H](N)C(=O)N[C@H](C(=O)N[C@@H](CCSC)C(=O)NCC(=O)N[C@@H](CO)C(=O)N[C@@H](CC(C)C)C(=O)N[C@@H](Cc1ccccc1)C(=O)N[C@@H](Cc1ccccc1)C(=O)N[C@H](C(=O)O)C(C)C)[C@@H](C)O [SPA12–20] (H-ITMGSLFFV-OH)
[3]
  IC50: 0.64 nM
[1]
  IC50: 0.26 nM
[2]
  IC50: 1.1 nM

## CC(C)C[C@H](NC(=O)CN)C(=O)N[C@@H](C)C(=O)N[C@@H](C)C(=O)N[C@@H](C)C(=O)N[C@H](C(=O)N[C@H](C(=O)N[C@@H](C)C(=O)N[C@H](C(=O)O)C(C)C)C(C)C)C(C)C [SPA82–90] (H-GLAAAVVAV-OH)
[1]
  IC50: 55 nM
[2]
  IC50: 263 nM
